PMC6414199, “Bim escapes displacement by BH3-mimetic anti-cancer drugs by double-bolt locking both Bcl-XL and Bcl-2” (eLife, 2019)
pIC50: −log10 of the molar value.

Target: T1, Bcl-XL (Homo sapiens, UniProt Q07817)
T1 construct: gene BCL2L1; mCerulean3-Bcl-XL fusion expressed in MCF-7 cells
Experiment: live-cell FLIM-FRET displacement of Venus-Bad from mCer3-Bcl-XL in MCF-7 cells
Assay type: cell-based

T1 sequence (Q07817 whole entry, the tested form may be a part): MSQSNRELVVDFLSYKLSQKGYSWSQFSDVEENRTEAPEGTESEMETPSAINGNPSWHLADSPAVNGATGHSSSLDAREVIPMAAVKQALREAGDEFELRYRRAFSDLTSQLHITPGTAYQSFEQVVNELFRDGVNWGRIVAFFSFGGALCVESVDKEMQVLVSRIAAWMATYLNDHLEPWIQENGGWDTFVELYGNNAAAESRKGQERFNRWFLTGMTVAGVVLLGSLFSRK

In the case of `CN(C)CC#Cc1ccc(OCCCc2sc(N3CCc4cccc(C(=O)Nc5nc6ccccc6s5)c4C3)nc2C(=O)O)c(F)c1` [A-1155463], the pIC50 was over 5.90.
